# Measurements from ChEMBL document CHEMBL1201862, “PubChem BioAssay data set” (2004).
# The source made the active and inactive calls.
# How the values were obtained:
# [1] = biological target: T1, Corticotropin-releasing factor receptor 2/Corticotropin-releasing factor-binding protein (Homo sapiens, UniProt P24387+Q13324); experiment: activators of CRF receptor 2 with binding protein – uHTS hits, confirmation (AID 602473); format: functional; settings: read-out: EC50_Mean
# T1 sequence (Q13324 whole entry): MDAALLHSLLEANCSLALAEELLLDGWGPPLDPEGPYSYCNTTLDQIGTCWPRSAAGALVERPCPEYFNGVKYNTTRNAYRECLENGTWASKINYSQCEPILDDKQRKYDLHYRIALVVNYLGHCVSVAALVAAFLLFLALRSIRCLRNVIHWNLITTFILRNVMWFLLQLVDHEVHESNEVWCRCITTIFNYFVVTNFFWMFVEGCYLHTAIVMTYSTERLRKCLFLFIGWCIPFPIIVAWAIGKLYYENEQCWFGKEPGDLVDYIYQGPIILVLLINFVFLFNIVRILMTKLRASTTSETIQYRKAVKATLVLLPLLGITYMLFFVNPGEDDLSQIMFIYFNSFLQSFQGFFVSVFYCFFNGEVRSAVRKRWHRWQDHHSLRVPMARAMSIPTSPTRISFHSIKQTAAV
# T1 sequence (P24387 whole entry): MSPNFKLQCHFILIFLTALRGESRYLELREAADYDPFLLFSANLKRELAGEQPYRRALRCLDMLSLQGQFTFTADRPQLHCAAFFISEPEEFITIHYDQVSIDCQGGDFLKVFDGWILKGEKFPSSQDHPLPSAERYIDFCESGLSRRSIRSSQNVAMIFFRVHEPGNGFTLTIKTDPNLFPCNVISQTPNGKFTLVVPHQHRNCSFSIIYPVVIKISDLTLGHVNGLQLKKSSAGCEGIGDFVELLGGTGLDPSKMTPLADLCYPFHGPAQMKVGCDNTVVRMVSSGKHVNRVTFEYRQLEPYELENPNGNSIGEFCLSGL
# [2] = blockers of CRF-binding protein–CRF-R2 complex – cell-based, uHTS hits, 384-well, dose response (AID 651639); format: functional, Homo sapiens; settings: read-out: IC50_Mean
# [3] = biological target: T1, Corticotropin-releasing factor receptor 2/Corticotropin-releasing factor-binding protein; experiment: Dose Response confirmation of uHTS hits for small molecule antagonists of the CRF-binding protein and CRF-R2 receptor complex.; format: functional; settings: read-out: IC50_Mean
# INS1 = experiment: INS-1E survival protection against cytokine death – cell-based, luminescence, retest, dose response (AID 449756); format: functional; settings: Rattus norvegicus;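 further: cell death triggered by IL-1 beta plus TNF-alpha plus IFN-gamma mixture; protective hits raise ATP signal compared with cytokine alone wells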
# [4] = microbe, parasite or virus in culture; format: functional; settings: Mycobacterium tuberculosis
# [5] = biological target: T2, Heat shock factor protein 1 (Mus musculus, UniProt P38532); experiment: enhancement of HSF1-driven luciferase signal – cell-based, NIH3T3, luminescence, dose retest, confirmation (AID 435004); format: functional;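 further: stress induced by proteasome inhibitor MG132 added 30 min after compound; luciferase reporter driven by HSF1 response element in NIH3T3 cells; actives raise luminescence as potentiators of the MG132 stress response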
# T2 sequence (P38532 whole entry): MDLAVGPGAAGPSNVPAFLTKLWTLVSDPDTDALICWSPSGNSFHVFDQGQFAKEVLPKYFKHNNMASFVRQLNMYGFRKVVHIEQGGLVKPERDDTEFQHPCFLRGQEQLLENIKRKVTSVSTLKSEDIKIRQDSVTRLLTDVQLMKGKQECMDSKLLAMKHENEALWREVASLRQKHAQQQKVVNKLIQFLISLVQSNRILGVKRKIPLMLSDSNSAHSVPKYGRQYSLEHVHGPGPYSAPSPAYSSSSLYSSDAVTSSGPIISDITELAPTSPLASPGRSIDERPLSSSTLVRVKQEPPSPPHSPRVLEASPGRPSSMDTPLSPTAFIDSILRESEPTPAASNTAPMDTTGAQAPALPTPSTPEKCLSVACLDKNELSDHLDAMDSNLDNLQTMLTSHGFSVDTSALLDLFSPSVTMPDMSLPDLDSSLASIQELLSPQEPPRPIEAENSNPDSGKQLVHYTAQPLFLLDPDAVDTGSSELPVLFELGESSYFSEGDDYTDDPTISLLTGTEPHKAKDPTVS
# Streptokinase A = biological target: T3, Streptokinase A (Streptococcus pyogenes serotype M1, UniProt P10520); experiment: viability-normalized secreted streptokinase activity reduction – plasminogen activation absorbance, OD405, dose response (AID 1914); format: functional, Streptococcus pyogenes M1 GAS;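 further: secreted streptokinase activity via plasminogen activation per viability signal from cell pellet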
# T3 sequence (P10520 whole entry): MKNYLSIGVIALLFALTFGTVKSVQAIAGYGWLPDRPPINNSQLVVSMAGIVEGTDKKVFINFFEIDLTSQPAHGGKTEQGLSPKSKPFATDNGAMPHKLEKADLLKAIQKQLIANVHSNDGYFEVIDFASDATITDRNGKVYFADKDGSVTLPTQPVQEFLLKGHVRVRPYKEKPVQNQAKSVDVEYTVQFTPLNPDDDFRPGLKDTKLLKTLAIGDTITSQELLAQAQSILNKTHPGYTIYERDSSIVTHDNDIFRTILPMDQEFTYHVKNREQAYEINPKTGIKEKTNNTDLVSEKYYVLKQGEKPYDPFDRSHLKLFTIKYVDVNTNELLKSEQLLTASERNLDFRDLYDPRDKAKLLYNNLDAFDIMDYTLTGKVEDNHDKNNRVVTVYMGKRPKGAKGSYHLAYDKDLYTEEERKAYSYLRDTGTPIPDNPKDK
# [6] = biological target: T4, Replicative DNA helicase DnaB (Mycobacterium tuberculosis, UniProt P9WMR3); experiment: DnaB intein splicing inhibitors, dose response, biochemical, cell-free fluorescence (AID 449749); format: functional
# T4 sequence (P9WMR3 whole entry): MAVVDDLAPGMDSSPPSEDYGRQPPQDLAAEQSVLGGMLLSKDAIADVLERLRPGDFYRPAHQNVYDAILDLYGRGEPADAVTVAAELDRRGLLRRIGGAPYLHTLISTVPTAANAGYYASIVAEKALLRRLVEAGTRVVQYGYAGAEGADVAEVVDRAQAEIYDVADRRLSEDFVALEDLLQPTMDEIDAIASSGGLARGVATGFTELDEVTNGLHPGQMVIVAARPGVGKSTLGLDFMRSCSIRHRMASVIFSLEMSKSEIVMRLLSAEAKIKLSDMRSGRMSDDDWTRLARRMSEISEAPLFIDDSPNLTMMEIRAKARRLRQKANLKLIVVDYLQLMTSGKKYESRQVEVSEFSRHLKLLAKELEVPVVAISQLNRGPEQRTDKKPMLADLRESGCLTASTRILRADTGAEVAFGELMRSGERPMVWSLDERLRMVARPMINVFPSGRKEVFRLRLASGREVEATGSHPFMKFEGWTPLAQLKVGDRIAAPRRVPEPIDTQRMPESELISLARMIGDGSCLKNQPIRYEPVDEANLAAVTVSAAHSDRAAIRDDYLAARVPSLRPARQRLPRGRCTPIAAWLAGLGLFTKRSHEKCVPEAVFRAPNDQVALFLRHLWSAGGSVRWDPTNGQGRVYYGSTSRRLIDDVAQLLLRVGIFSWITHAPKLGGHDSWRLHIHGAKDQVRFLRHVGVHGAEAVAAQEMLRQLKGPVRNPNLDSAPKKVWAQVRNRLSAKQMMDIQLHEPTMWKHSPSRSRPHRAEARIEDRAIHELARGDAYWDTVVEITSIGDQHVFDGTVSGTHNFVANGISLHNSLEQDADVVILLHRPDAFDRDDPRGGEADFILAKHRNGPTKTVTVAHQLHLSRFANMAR
# cells [7] = format: functional, cell-based
# Nonstructural protein 1 = Nonstructural protein 1 (Influenza A virus, UniProt Q194T2); format: functional, Influenza A virus (A/California/07/2009(H1N1))
# Sequence of Nonstructural protein 1 (Q194T2 whole entry): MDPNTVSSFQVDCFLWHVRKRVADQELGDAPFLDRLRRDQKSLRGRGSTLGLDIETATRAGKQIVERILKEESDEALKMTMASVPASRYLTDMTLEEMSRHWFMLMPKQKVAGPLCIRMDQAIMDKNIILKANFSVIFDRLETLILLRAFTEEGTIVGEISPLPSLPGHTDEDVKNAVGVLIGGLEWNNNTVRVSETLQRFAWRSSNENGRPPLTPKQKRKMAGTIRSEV
# [8] = system: Streptococcus sp. 'group A'; experiment: Streptococcus pyogenes SK(-)GAS viability under kanamycin – luminescence, BacTiterGlo, confirmation, counter-screen for streptokinase expression inhibitor project, dose response (AID 1900); format: functional, organism-based
# [9] = biological target: Photoreceptor-specific nuclear receptor (Homo sapiens, UniProt Q9Y5X4); format: functional, cell-based;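 further: CHO-S cells with Gal4-NCOR and VP16-NR2E3 two-hybrid luciferase reporter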
# Sequence of Photoreceptor-specific nuclear receptor (Q9Y5X4 whole entry, the tested form may be a part): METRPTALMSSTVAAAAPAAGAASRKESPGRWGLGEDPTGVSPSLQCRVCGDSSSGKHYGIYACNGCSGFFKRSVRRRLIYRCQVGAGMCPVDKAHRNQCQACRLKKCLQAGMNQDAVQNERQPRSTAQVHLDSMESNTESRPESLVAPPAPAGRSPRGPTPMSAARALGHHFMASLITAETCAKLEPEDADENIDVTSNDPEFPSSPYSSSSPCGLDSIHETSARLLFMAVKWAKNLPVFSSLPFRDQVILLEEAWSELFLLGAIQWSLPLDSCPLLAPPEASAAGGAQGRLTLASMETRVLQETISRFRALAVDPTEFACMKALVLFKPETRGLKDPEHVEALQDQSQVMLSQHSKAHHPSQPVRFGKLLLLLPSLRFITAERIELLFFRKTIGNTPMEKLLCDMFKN
# Protein RecA = biological target: T5, Protein RecA (Mycobacterium tuberculosis, UniProt P9WHJ3); experiment: Fluorescence Cell-Free Homogeneous Dose Retest to Identify Inhibitors of RecA-Intein Splicing Activity. [Related pubchem assays (depositor defined):AID2097, AID2223, AID489010, AID492950]; format: functional
# T5 sequence (P9WHJ3 whole entry): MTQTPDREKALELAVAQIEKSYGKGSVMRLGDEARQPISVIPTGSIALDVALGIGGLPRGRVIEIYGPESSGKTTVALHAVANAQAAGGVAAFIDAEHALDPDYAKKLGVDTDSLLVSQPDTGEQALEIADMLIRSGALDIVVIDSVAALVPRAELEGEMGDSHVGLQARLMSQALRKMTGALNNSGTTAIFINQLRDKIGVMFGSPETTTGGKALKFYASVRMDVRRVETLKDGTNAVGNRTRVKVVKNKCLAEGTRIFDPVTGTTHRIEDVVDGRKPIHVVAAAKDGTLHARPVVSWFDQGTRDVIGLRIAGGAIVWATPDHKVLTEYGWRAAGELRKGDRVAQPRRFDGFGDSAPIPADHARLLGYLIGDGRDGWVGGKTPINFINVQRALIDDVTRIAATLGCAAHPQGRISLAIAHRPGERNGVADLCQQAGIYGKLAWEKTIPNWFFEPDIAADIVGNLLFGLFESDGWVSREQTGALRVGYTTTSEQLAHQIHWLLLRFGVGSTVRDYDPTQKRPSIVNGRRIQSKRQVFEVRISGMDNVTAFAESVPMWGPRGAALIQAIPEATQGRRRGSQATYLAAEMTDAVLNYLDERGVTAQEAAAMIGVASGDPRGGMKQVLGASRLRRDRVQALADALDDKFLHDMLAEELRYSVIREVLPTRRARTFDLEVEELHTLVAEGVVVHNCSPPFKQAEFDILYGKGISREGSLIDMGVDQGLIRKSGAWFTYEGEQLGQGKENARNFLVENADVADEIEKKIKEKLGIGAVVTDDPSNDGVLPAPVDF
# cells [10] = format: functional, cell-based; remark: listed apart in the source
# [11] = biological target: E3 ubiquitin-protein ligase Mdm2 (Homo sapiens, UniProt Q00987); experiment: MDM2-luc reporter signal enhancers, multi-concentration potency testing, MDM2 ubiquitin-protein ligase inhibitor program, whole-cell format, luminescence detection, 384-well microplate (AID 1394); format: functional;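 further: MDM2 E3 inhibitors raise luminescence so EC50 is for signal enhancement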
# Sequence of E3 ubiquitin-protein ligase Mdm2 (Q00987 whole entry): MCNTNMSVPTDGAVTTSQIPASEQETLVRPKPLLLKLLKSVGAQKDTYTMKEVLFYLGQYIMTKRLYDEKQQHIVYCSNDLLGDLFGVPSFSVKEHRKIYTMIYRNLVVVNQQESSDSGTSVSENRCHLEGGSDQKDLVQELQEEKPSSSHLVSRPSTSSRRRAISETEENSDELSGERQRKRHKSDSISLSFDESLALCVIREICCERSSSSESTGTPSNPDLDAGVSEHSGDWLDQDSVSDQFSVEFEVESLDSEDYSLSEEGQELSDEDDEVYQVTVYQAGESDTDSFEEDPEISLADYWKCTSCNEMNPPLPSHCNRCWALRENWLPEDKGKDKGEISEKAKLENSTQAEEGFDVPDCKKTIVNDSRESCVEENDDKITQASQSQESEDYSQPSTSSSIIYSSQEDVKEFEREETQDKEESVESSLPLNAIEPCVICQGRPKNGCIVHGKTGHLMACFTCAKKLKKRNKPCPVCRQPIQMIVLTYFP
# Streptococcus = experiment: GAS UMAA2166 growth inhibition – luminescence, BacTiterGlo, counter-screen for streptokinase expression inhibitor project, dose response (AID 1915); format: functional, organism-based;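 further: potency for reduction of bacterial viability or growth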
# [12] = biological target: T6, Tyrosine-protein phosphatase non-receptor type 22 (Homo sapiens, UniProt Q9Y2R2); experiment: PTPN22 enzyme inhibitors – biochemical, fluorescence, LYP catalytic domain, selectivity assay for LMPTP inhibitor project, dose response (AID 652006); format: functional; settings: read-out: IC50_Mean
# T6 sequence (Q9Y2R2 whole entry): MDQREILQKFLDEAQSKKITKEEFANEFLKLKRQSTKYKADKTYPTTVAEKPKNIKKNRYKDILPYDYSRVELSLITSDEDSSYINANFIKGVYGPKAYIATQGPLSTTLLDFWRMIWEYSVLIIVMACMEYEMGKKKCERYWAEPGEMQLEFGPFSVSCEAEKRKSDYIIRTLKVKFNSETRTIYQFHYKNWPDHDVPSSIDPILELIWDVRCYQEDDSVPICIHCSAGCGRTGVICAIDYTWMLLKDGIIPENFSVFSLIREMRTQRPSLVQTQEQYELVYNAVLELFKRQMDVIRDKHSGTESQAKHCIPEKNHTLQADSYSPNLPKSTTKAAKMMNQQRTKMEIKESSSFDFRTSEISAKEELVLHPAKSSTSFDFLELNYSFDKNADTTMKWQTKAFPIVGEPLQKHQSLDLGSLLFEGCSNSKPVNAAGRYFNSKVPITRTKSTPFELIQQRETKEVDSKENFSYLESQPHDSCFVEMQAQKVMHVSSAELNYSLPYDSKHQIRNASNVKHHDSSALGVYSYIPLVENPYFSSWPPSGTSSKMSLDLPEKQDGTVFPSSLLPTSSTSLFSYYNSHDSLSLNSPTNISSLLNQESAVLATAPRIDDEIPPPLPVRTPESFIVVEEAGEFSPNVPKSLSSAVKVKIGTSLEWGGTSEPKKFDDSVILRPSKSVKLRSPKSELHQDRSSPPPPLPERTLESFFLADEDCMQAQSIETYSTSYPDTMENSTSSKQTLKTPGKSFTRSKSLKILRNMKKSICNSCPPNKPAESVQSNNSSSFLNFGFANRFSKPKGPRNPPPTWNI
# [13] = biological target: Low molecular weight phosphotyrosine protein phosphatase (Homo sapiens, UniProt P24666); format: functional; settings: read-out: IC50_Mean;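 further: Dose-response confirmation assay measuring inhibition of LMPTP enzyme activity by fluorescence intensity read-out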
# Sequence of Low molecular weight phosphotyrosine protein phosphatase (P24666 whole entry, the tested form may be a part): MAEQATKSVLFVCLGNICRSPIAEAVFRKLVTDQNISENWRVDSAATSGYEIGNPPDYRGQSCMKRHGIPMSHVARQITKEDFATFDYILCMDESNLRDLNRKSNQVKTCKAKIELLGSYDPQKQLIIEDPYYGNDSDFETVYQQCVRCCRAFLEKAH
# [14] = biological target: T7, Carboxy-terminal domain RNA polymerase II polypeptide A small phosphatase 1 (Homo sapiens, UniProt Q9GZU7); experiment: CTDSP1 inhibitors, concentration-response, biochemical, absorbance readout, ultra-high-throughput screen actives (AID 540297); format: functional
# T7 sequence (Q9GZU7 whole entry): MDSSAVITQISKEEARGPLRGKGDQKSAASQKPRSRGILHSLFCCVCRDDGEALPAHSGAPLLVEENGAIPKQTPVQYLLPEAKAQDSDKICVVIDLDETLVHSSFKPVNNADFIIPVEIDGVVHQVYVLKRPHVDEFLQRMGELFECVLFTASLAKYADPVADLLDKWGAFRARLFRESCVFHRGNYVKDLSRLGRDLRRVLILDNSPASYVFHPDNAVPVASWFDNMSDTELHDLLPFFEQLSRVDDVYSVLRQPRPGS
smiles,measurement,setting,value
COCCN=C(S)N1CCc2cc(OC)c(OC)cc2C1COc1cc(C)cc(C)c1 (centres undefined),EC50,[1],> 53 µM (inactive)
same,IC50,[2],> 20 µM (inactive)
same,IC50,[3],32.1 µM (active)
Oc1[nH]c2ccccc2c1N=NC(=S)N1CCOCC1,AC50,INS1,2.25 µM (active)
same,CC50,[4],5.25 µM (active)
same,EC50,[5],3.31 µM (inconclusive)
same,EC50,Streptokinase A,> 150 µM (not active)
same,AC50,[6],> 380 µM (inactive)
same,EC50,cells [7],> 350 µM (not active)
same,IC50,Nonstructural protein 1,4.88 µM (active)
same,EC50,[8],0.271 µM (active)
same,IC50,[9],4.03 µM (active)
same,EC50,Protein RecA,12.9 µM (active)
same,EC50,cells [10],7.37 µM (active)
same,EC50,[11],2.24 µM (not active)
same,EC50,Streptococcus,5.64 µM (active)
NC(=O)Cc1ccc(C(=O)CSc2nnc(-c3ccncc3)n2C2CC2)s1,IC50,[12],55.6 µM (inactive)
same,IC50,[13],21 µM (inactive)
same,IC50,[14],4.44 µM (active)
